These molecules were tested against human GluN1/GluN2B NMDA receptors (Homo sapiens, UniProt Q05586+Q13224) (assay: Cell-based calcium flux (FLIPR) assay on cloned human NR1/NR2B ion channels expressed in mammalian cells). Conditions: standard assay; glutamate at ~EC80; FLIPR calcium flux.
Method: Effects of Test Articles on Cloned Human NR1/NR2B Ion Channels Expressed in Mammalian Cells
NMDA receptors are ion channels that are highly permeable to Ca^2+ ions, rendering it possible to monitor NMDA receptor function using cell-based calcium flux assay. In this assay, co-agonists glutamate and glycine are added to cells heterologously expressing human GluN1/GluN2B NMDA receptors to initiate cellular Ca^2+ influx. The time course of the changes in intracellular calcium is measured using a fluorescent dye and a FLIPR (Fluorometric Imaging Plate Reader) device.
Twenty four hours before measurements, the expression of the NMDA receptors in the stable cell line is induced with Tet-On inducible system in the presence of a non-selective NMDA receptor blocker. On the day of the experiment, cell culture media is carefully washed and the cells are loaded with Calcium 5 Dye Kit (Molecular Devices) in dye loading buffer containing 149 mM NaCl, 4 mM KCl, 2 mM CaCl2, and 1.5 mM MgCl2, 10 mM HEPES and 5 mM D-glucose; pH 7.4. After 1 h incubation at the room temperature, the dye is washed away with the assay buffer (149 mM NaCl (standard assay) or 150 mM (HTS assay), 4 mM KCl (standard assay) or 3 mM (HTS assay), 2 mM CaCl2, 0.01 mM EDTA, 10 mM HEPES and 5 mM D-glucose; pH 7.4) In the FLIPR TETRA reader, various concentrations of the test compounds are added to the cells for 5 min while fluorescence is monitored to detect potential agonist activity. Next, co-agonists, glutamate and glycine are added for another 5 minutes. The concentration of glutamate corresponding to ˜EC80 (standard assay) or EC40 (HTS assay) is used to maximize the assay's signal window or the ability to detect NMDA receptor antagonists and negative allosteric modulators, respectively. A saturating concentration (10 μM) of glycine is also present in the assay. […] The fluorescent signal in the presence of test compounds is quantified and normalized to the signal defined by the appropriate control wells.

human GluN1/GluN2B NMDA receptors, sequence (Q13224 27-1484, other chains not shown): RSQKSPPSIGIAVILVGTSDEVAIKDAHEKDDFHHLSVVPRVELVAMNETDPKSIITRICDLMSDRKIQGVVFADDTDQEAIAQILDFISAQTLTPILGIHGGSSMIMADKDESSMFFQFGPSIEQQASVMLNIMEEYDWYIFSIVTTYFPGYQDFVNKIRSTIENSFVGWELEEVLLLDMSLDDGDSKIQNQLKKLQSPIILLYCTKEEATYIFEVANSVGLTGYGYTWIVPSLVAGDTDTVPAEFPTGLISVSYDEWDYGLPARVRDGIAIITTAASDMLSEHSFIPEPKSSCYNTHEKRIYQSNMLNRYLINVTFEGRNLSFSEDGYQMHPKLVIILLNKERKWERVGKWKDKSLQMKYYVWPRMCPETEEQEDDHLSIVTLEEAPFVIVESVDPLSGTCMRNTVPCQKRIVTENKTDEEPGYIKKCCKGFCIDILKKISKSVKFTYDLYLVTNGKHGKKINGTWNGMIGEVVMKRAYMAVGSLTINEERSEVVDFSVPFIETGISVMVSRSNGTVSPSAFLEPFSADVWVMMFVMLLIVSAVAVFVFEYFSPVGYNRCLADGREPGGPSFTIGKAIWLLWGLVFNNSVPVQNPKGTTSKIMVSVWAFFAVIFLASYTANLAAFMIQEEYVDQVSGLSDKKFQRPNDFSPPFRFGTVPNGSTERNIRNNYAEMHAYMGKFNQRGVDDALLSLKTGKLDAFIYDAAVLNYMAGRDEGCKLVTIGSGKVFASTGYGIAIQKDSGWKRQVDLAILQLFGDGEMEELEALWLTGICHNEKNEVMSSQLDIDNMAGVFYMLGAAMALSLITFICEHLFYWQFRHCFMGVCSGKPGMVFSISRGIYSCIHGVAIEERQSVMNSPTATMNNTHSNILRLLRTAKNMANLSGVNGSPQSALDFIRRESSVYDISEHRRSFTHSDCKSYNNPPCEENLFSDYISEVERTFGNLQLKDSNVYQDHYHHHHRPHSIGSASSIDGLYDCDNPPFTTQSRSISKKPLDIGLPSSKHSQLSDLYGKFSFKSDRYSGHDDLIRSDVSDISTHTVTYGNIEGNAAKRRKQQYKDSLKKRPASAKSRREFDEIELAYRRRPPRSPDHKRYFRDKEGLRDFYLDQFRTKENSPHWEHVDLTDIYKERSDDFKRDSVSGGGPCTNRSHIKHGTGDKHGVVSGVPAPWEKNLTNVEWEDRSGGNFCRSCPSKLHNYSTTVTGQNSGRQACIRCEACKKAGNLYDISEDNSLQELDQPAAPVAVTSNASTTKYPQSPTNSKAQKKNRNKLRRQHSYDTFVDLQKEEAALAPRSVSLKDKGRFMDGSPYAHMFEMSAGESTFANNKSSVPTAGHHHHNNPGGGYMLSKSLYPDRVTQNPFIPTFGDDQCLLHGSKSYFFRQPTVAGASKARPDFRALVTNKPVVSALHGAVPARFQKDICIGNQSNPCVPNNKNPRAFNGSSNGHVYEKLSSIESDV

| Compound | IC50 |
| --- | --- |
| CC(O)(c1cnc(OCc2cn(-c3ccc(F)c(C(F)F)c3)nn2)nc1)C(F)(F)F (racemic) [Example 404, (R/S)-2-[2-[[1-[3-(Difluoromethyl)-4-fluoro-phenyl]triazol-4-yl]methoxy]pyrimidin-5-yl]-1,1,1-trifluoro-propan-2-ol] | 0.482 µM |
| CC(O)(c1cnc(OCc2cn(-c3ccc(F)c(C(F)(F)F)c3)nn2)nc1)C(F)(F)F (racemic) [Example 441, (R/S)-1,1,1-Trifluoro-2-[2-[[1-[4-fluoro-3-(trifluoromethyl)phenyl]triazol-4-yl]methoxy]pyrimidin-5-yl]propan-2-ol] | 0.412 µM |
| CC(O)c1cnc(OCc2cn(-c3ccc(F)c(C(F)(F)F)c3)nn2)nc1 (racemic) [Example 448, (R/S)-1-[2-[[1-[4-Fluoro-3-(trifluoromethyl)phenyl]triazol-4-yl]methoxy]pyrimidin-5-yl]ethanol] | 0.031 µM |
| CC(F)(F)c1cc(-n2cc(COc3ncc(C(C)(O)C(F)(F)F)cn3)nn2)ccc1Cl (racemic) [Example 539, (R/S)-2-[2-[[1-[4-Chloro-3-(1,1-difluoroethyl)phenyl]triazol-4-yl]methoxy]pyrimidin-5-yl]-1,1,1-trifluoro-propan-2-ol] | 0.45 µM |
| CC(O)c1cnc(OCc2cn(-c3ccc(Cl)c(C(C)(F)F)c3)nn2)nc1 (racemic) [Example 551, (R/S)-1-[2-[[1-[4-Chloro-3-(1,1-difluoroethyl)phenyl]triazol-4-yl]methoxy]pyrimidin-5-yl]ethanol] | 0.014 µM |
| CC(F)(F)c1cc(-n2cc(COc3ncc(C(C)(O)C(F)(F)F)cn3)nn2)ccc1F (racemic) [Example 565, (R/S)-2-[2-[[1-[3-(1,1-Difluoroethyl)-4-fluoro-phenyl]triazol-4-yl]methoxy]pyrimidin-5-yl]-1,1,1-trifluoro-propan-2-ol] | 0.308 µM |
| CC(O)c1cnc(OCc2cn(-c3ccc(F)c(C(C)(F)F)c3)nn2)nc1 (racemic) [Example 586, (R/S)-1-[2-[[1-[3-(1,1-Difluoroethyl)-4-fluoro-phenyl]triazol-4-yl]methoxy]pyrimidin-5-yl]ethanol] | 0.014 µM |

Same assay, conditions: standard assay; human GluN1/GluN2B, calcium flux (FLIPR), glutamate ~EC80

| Compound | IC50 |
| --- | --- |
| CC(Oc1ncccn1)c1cn(-c2ccc(Cl)c(OC(F)F)c2)nn1 (racemic) [Example 53, (R/S)-2-[1-[1-[4-Chloro-3-(difluoromethoxy)phenyl]triazol-4-yl]ethoxy]pyrimidine] | 0.026 µM |
| Cc1cnc(OC(C)c2cn(-c3ccc(Cl)c(OC(F)F)c3)nn2)nc1 (racemic) [Example 56, (R/S)-2-[1-[1-[4-Chloro-3-(difluoromethoxy)phenyl]triazol-4-yl]ethoxy]-5-methyl-pyrimidine] | 0.028 µM |
| Cc1ccnc(OC(C)c2cn(-c3ccc(Cl)c(OC(F)F)c3)nn2)n1 (racemic) [Example 59, (R/S)-2-[1-[1-[4-Chloro-3-(difluoromethoxy)phenyl]triazol-4-yl]ethoxy]-4-methyl-pyrimidine] | 0.04 µM |
| CC(Oc1ncc(Cl)cn1)c1cn(-c2ccc(Cl)c(OC(F)F)c2)nn1 (racemic) [Example 60, (R/S)-5-Chloro-2-[1-[1-[4-chloro-3-(difluoromethoxy)phenyl]triazol-4-yl]ethoxy]pyrimidine] | 0.032 µM |
| CC(O)c1cnc(OCc2cn(-c3ccc(F)c(C(F)F)c3)nn2)nc1 (racemic) [Example 157, (R/S)-1-[2-[[1-[3-(Difluoromethyl)-4-fluoro-phenyl]triazol-4-yl]methoxy]pyrimidin-5-yl]ethanol] | 0.018 µM |
| CC(N)c1ccnc(OCc2cn(-c3ccc(F)c(OC(F)F)c3)nn2)n1 (racemic) [Example 163, (R/S) 1-[2-[[1-[3-(Difluoromethoxy)-4-fluoro-phenyl]triazol-4-yl]methoxy]pyrimidin-4-yl]ethanamine] | 1.4 µM |
| CC(F)(F)c1cccc(-n2cc(COc3ncc(C(C)(O)C(F)(F)F)cn3)nn2)c1 (racemic) [Example 305, (R/S)-2-[2-[[1-[3-(1,1-Difluoroethyl)phenyl]triazol-4-yl]methoxy]pyrimidin-5-yl]-1,1,1-trifluoro-propan-2-ol] | 0.496 µM |
| CC(O)c1cnc(OCc2cn(-c3cccc(C(C)(F)F)c3)nn2)nc1 (racemic) [Example 310, (R/S)-1-[2-[[1-[3-(1,1-Difluoroethyl)phenyl]triazol-4-yl]methoxy]pyrimidin-5-yl]ethanol] | 0.037 µM |
| COC(C)c1cnc(OCc2cn(-c3cccc(C(C)(F)F)c3)nn2)nc1 (racemic) [Example 311, (R/S)-2-[[1-[3-(1,1-Difluoroethyl)phenyl]triazol-4-yl]methoxy]-5-(1-methoxyethyl)pyrimidine] | 1.58 µM |
| CC(Oc1ncccn1)c1cn(-c2ccc(Cl)c(OC(F)F)c2)nn1 (single isomer, unassigned) [Example 54, (R*)-2-[1-[1-[4-Chloro-3-(difluoromethoxy)phenyl]triazol-4-yl]ethoxy]pyrimidine] | 4.64 µM |
| CC(Oc1ncccn1)c1cn(-c2ccc(Cl)c(OC(F)F)c2)nn1 (single isomer, unassigned) [Example 55, (S*)-2-[1-[1-[4-Chloro-3-(difluoromethoxy)phenyl]triazol-4-yl]ethoxy]pyrimidine] | 0.008 µM |
| Cc1cnc(OC(C)c2cn(-c3ccc(Cl)c(OC(F)F)c3)nn2)nc1 (single isomer, unassigned) [Example 57, (R*)-2-[1-[1-[4-Chloro-3-(difluoromethoxy)phenyl]triazol-4-yl]ethoxy]-5-methyl-pyrimidine] | 0.338 µM |
| Cc1cnc(OC(C)c2cn(-c3ccc(Cl)c(OC(F)F)c3)nn2)nc1 (single isomer, unassigned) [Example 58, (S*)-2-[1-[1-[4-Chloro-3-(difluoromethoxy)phenyl]triazol-4-yl]ethoxy]-5-methyl-pyrimidine] | 0.007 µM |
| FC(F)c1cc(-n2cc(COc3ncccn3)nn2)ccc1Cl [Example 1, 2-((1-(4-Chloro-3-(difluoromethyl)phenyl)-1H-1,2,3-triazol-4-yl)methoxy)pyrimidine] | 0.049 µM |
| FC(F)Oc1cc(-n2cc(CNc3ccccn3)nn2)ccc1Cl [Example 2, N-((1-(4-Chloro-3-(difluoromethoxy)phenyl)-1H-1,2,3-triazol-4-yl)methyl)pyridin-2-amine] | 0.213 µM |
| Fc1ccc(-n2cc(CNc3ncccn3)nn2)cc1C(F)(F)F [Example 3, N-[[1-[4-Fluoro-3-(trifluoromethyl)phenyl]triazol-4-yl]methyl]pyrimidin-2-amine] | 2.8 µM |
| Fc1ccc(-n2cc(COc3ccccn3)nn2)cc1OC(F)F [Example 4, 2-[[1-[3-(Difluoromethoxy)-4-fluoro-phenyl]triazol-4-yl]methoxy]pyridine] | 0.392 µM |
| FC(F)Oc1cc(-n2cc(COc3cccnc3)nn2)ccc1Cl [Example 5, 3-[[1-[4-Chloro-3-(difluoromethoxy)phenyl]triazol-4-yl]methoxy]pyridine] | 0.333 µM |
| FC(F)c1cccc(-n2cc(CNc3ncccn3)nn2)c1 [Example 6] | 10.6 µM |
| Cn1ccnc1NCc1cn(-c2ccc(F)c(OC(F)F)c2)nn1 [Example 7, N-[[1-[3-(Difluoromethoxy)-4-fluoro-phenyl]triazol-4-yl]methyl]-1-methyl-imidazol-2-amine] | 1.87 µM |
| Cc1cccc(OCc2cn(-c3ccc(F)c(OC(F)F)c3)nn2)n1 [Example 8, 2-[[1-[3-(Difluoromethoxy)-4-fluoro-phenyl]triazol-4-yl]methoxy]-6-methyl-pyridine] | 0.022 µM |
| Fc1ccc(-n2cc(COc3ncccn3)nn2)cc1Br [Example 9, 2-[[1-(3-Bromo-4-fluoro-phenyl)triazol-4-yl]methoxy]pyrimidine] | 0.02 µM |
| FC(F)Oc1cc(-n2cc(COc3ncccn3)nn2)ccc1Cl [Example 10, 2-[[1-[4-Chloro-3-(difluoromethoxy)phenyl]triazol-4-yl]methoxy]pyrimidine] | 0.01 µM |
| FC(F)c1cc(-n2cc(COc3ccccn3)nn2)ccc1Cl [Example 11, 2-[[1-[4-Chloro-3-(difluoromethyl)phenyl]triazol-4-yl]methoxy]pyridine] | 1.2 µM |
| FC(F)c1cc(-n2cc(COc3ccncn3)nn2)ccc1Cl [Example 12, 4-[[1-[4-Chloro-3-(difluoromethyl)phenyl]triazol-4-yl]methoxy]pyrimidine] | 2.23 µM |
| FC(F)Oc1cc(-n2cc(COc3ccncn3)nn2)ccc1Cl [Example 13, 4-[[1-[4-Chloro-3-(difluoromethoxy)phenyl]triazol-4-yl]methoxy]pyrimidine] | 0.879 µM |
| FC(F)Oc1cc(-n2cc(COc3cccnn3)nn2)ccc1Cl [Example 14, 3-[[1-[4-Chloro-3-(difluoromethoxy)phenyl]triazol-4-yl]methoxy]pyridazine] | 0.401 µM |
| COc1cc(-n2cc(COc3ncccn3)nn2)ccc1Cl [Example 15, 2-[[1-(4-Chloro-3-methoxy-phenyl)triazol-4-yl]methoxy]pyrimidine] | 0.699 µM |
